Laboratory results reported in patent publication US20070191435A1, “HYDROCHLORIDE SALT OF 5-[4-[2-(N-METHYL-N-(2-PYRIDYL)AMINO)ETHOXY]BENZYL]THIAZOLIDINE-2,4-DIONE” (SmithKline Beecham p.l.c., priority 2000, published 2007).

How the values were obtained:
[1] = Solid state stability of the drug substance, assayed by HPLC; assay type: physicochemical; conditions: 1 month
Protocol: The solid state stability of the drug substance was determined by storing approximately 1.0 g of the material in a glass bottle at a) 40° C./75% Relative Humidity (RH), open exposure, for 1 month and b) at 50° C., closed, for 1 month. […] Solubility of the Hydrochloride

[2] = Solubility in water, visual, confirmed by HPLC assay of a saturated solution; assay type: physicochemical; conditions: thermodynamic from solid
Description: The visual solubility was confirmed by an HPLC assay of a saturated solution.

CN(CCOc1ccc(CC2SC(=O)NC2=O)cc1)c1ccccn1.Cl (centres unmarked) [Hydrochloride, 5-[4-[2-(N-methyl-N-(2-pyridyl)amino)ethoxy]benzyl]thiazolidine-2,4-dione hydrochloride]
HPLC assay for final content ([1]; 40° C./75% RH, open exposure): 100 % initial | degradation products (HPLC) ([1]; 40° C./75% RH, open exposure): No significant degradation observed | HPLC assay for final content ([1]; 50° C., closed): 101 % initial | degradation products (HPLC) ([1]; 50° C., closed): No significant degradation observed | solubility [2]: 25 mg/mL
